Laboratory results as given in patent US20220146492A1, “CELL MEMBRANE PERMEABILITY RESTORING THERAPY” (priority 2019, published 2022).

Tested on: RBCs
Assay: Cell scan of RBC membrane permeability (Pk0) after contacting whole blood from a healthy volunteer with an agent
Format: cell-based, human
Conditions: for Induction of water permeability resistance (decreased RBC membrane permeability to water): agents at concentrations consistent with in vivo concentration; for Pk0 (mOsm/kg): whole blood in ACD, healthy volunteer, measured after exposure (method: five minutes), lactose 1:20 (v/v) saturated lactose solution, amphotericin B 0.5 μg/mL
Procedure: A sample of whole blood from a healthy volunteer was drawn into ACD anticoagulant. The unwashed sample was divided into aliquots and was analyzed using the Prior Shine Technology and/or the Provided Cell Scanning Technologies. The following outputs were obtained from the sample:
Using the technologies described herein, a cell-by-cell analysis was converted into a plot of percent change of cell volume vs. osmolality (“Cell Scan Plot”) by converting the individual peak voltage into a cell volume, then calculating a mean volume for an aliquot of cells, and plotting the means to generate the Cell Scan Plot. The percentage change of cell volume at each osmolality is calculated and compared to the mean cell volume of an isotonic cell (e.g., FIG. 1b). On such a plot, Pk0 (see 101) is the osmotic pressure at which the net water flow is zero (i.e., when a cell achieved its maximum volume, i.e., when it is a perfect sphere). As described herein, in some embodiments, Pk0 can be used as an indicator of an individual's health status.
A sample of whole blood from a healthy volunteer was drawn into ACD anticoagulant. Blood samples were divided into aliquots, and each sample was contacted with an agent at concentrations consistent with the agent's in vivo concentration. Agents that were tested included alcohols, alpha fetoproteins, amphotericin B, bovine albumen, carcinoembryonic antigen (CEA), concanavalin A (Con A), fetuin, fibronectin, 5-HT, kallikrein, ovomucoid, prostacyclin, prostaglandin, semen, transferrin, and several sugars, including N-acetyl-D-glucosamine, N-acetyl neurominic acid, 2-deoxy-D-ribose, fructose, D- and L-arabinose, beta-D-galactopyranoside, erythrose, D- and L-fucose, D- and L-glucose, D-galactose, lactose, maltose, iso-maltose, D-mannose, mannitol, L-rhamnose, ribose, sucrose, and D-xylose. Five minutes after exposure to an agent, the blood sample was evaluated for cell membrane permeability and Pk0 was measured. […] Lactose ([…]) lowered Pk0 to 110 mOsm/kg.
A sample of whole blood from a healthy volunteer was drawn into ACD anticoagulant. The sample was then treated with 5-HT (900 ng/mL), and cell membrane permeability was evaluated 5 minutes after treatment.

Row | SMILES | Pk0 lowered to (after 10 minutes) [mOsm/kg] | Induction of water permeability resistance (decreased RBC membrane permeability to water) | Pk0 (mOsm/kg) (5-HT 900 ng/mL) | Pk0 after treatment with 5-HT (5-HT 900 ng/mL, 5 minutes after treatment, normal Pk0 before approx. 140 mOsm/kg (FIG. 8)) | Pk0 shift after contacting with 5-HT (FIG. 8, RBCs from normal healthy individual, before vs after 5-HT)
1 | OC[C@H]1O[C@@H](O[C@H]2[C@H](O)[C@@H](O)C(O)O[C@@H]2CO)[C@H](O)[C@@H](O)[C@H]1O (stereo partly drawn) [Lactose] | 110 | identified as RBC membrane permeability decreasing agents | 110 | – | –
2 | C[C@@H]1[C@H](O)[C@@H](C)/C=C/C=C/C=C/C=C/C=C/C=C/C=C/[C@H](O[C@@H]2O[C@H](C)[C@@H](O)[C@H](N)[C@@H]2O)C[C@@H]2O[C@](O)(C[C@@H](O)C[C@@H](O)[C@H](O)CC[C@@H](O)C[C@@H](O)CC(=O)O[C@H]1C)C[C@H](O)[C@H]2C(=O)O [Amphotericin B] | – | identified as RBC membrane permeability decreasing agents | 85 | – | –
3 | NCCc1c[nH]c2ccc(O)cc12 [Agent 5-HT, 5-hydroxytryptamine] | – | effective within minutes | 110 | approx. 110 mOsm/kg | approx. 30 mOsm/kg
